Entries after “also recorded” stand apart in the source; their conditions may differ.
What was measured:
Type in all cases: binding, SARS-CoV-2
R88A = test system: R88A
R149A = test system: R149A
NTD mutants = test system: NTD mutants
H145A = test system: H145A

COc1ccc2cc([C@H](C)C(=O)O)ccc2c1 [Naproxen, naproxen]
Mutations SPR (% Inhibition/NTD wt) (R88A): R88 (55%), R149 (44%) | Mutations SPR (% Inhibition/NTD wt) (R149A): R88 (55%), R149 (44%)

RPKPQQF-OH [Substance P (1-7), Substance P (1-7) RPKPQQF-OH]
effect of NTD mutations on SPR signal, in words (NTD mutants): relatively small effects of the mutations with notable exceptions of W52A and Y111A

Dihydrofolate [DHF]
effect of NTD mutations on SPR signal, in words (NTD mutants): Mutations H145A and R149A strongly reduced the signal; also recorded: strong effects of the mutations R92A, Y111A and R88A | Mutations SPR (% Inhibition/NTD wt) (R149A): H145 (96%), R149 (83%) | Mutations SPR (% Inhibition/NTD wt) (H145A): H145 (96%), R149 (83%)
